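96-well plates; 48 h exposure; 5 concentrations. Endpoints by linear interpolation between flanking doses. Not reached: highest tested concentration assigned. Abbreviation: GI50, concentration required for 50% inhibition of growth.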 Calls of active or inactive are those of the source. No stated cut-off is given here; in the data, active = GI50 up to about 1.1 µM and inactive = higher.
Experiments:
Assay in all cases: NCI-60 cell line screen, 48 h
786-0 = system: 786-0
A498 = system: A498
CAKI-1 = system: CAKI-1
EKVX = system: EKVX
HOP-92 = system: HOP-92
HT-29 = system: HT-29
KM12 = system: KM12
M14 = system: M14
MOLT-4 = system: MOLT-4
NCI-H226 = system: NCI-H226
NCI-H23 = system: NCI-H23
OVCAR-4 = system: OVCAR-4
OVCAR-8 = system: OVCAR-8
SF-268 = system: SF-268
SK-MEL-2 = system: SK-MEL-2
TK-10 = system: TK-10
U-251 = system: U-251
MCF7 = system: MCF7
MDA-MB-435 = system: MDA-MB-435
MDA-MB-231 = system: MDA-MB-231

`CC(=O)N1CC2Nc3ccccc3C2CC1CO` (stereo not given) was tested, and the GI50 (786-0) was > 100 µM (inactive), the GI50 (A498) was > 100 µM (inactive) and the GI50 (CAKI-1) was > 100 µM (inactive). For the same molecule, the GI50 (EKVX) was > 100 µM (inactive), the GI50 (HOP-92) was > 100 µM (inactive) and the GI50 (HT-29) was > 100 µM (inactive). The GI50 (KM12) was > 100 µM (inactive), the GI50 (M14) was > 100 µM (inactive) and the GI50 (MOLT-4) was > 100 µM (inactive). The GI50 (NCI-H226) was > 100 µM (inactive), the GI50 (NCI-H23) was > 100 µM (inactive) and the GI50 (OVCAR-4) was > 100 µM (inactive). The GI50 (OVCAR-8) was > 100 µM (inactive), the GI50 (SF-268) was > 100 µM (inactive) and the GI50 (SK-MEL-2) was > 100 µM (inactive). For the same molecule, the GI50 (TK-10) was > 100 µM (inactive) and the GI50 (U-251) was > 100 µM (inactive).

`NC(=O)c1cn(Cc2ccccc2)c(=O)n1Cc1ccccc1` was tested, and the GI50 (786-0) was > 100 µM (inactive), the GI50 (A498) was > 100 µM (inactive) and the GI50 (CAKI-1) was > 100 µM (inactive). For the same molecule, the GI50 (EKVX) was > 100 µM (inactive), the GI50 (HOP-92) was > 100 µM (inactive) and the GI50 (HT-29) was > 100 µM (inactive). The GI50 (KM12) was > 100 µM (inactive), the GI50 (M14) was > 100 µM (inactive) and the GI50 (MOLT-4) was > 100 µM (inactive). The GI50 (NCI-H226) was > 100 µM (inactive), the GI50 (NCI-H23) was > 100 µM (inactive) and the GI50 (OVCAR-4) was > 100 µM (inactive). The GI50 (OVCAR-8) was > 100 µM (inactive), the GI50 (SF-268) was > 100 µM (inactive) and the GI50 (SK-MEL-2) was > 100 µM (inactive). The GI50 (TK-10) was > 100 µM (inactive) and the GI50 (U-251) was > 100 µM (inactive).

For `NCCN1CCCCCc2ccccc21`, the GI50 (786-0) was > 10 µM (inactive), the GI50 (A498) was > 10 µM (inactive) and the GI50 (CAKI-1) was > 10 µM (inactive). The GI50 (EKVX) was > 10 µM (inactive), the GI50 (HT-29) was > 10 µM (inactive) and the GI50 (KM12) was > 10 µM (inactive). For the same molecule, the GI50 (MCF7) was > 10 µM (inactive), the GI50 (MDA-MB-435) was > 10 µM (inactive) and the GI50 (MOLT-4) was > 10 µM (inactive). The GI50 (NCI-H226) was > 10 µM (inactive), the GI50 (NCI-H23) was > 10 µM (inactive) and the GI50 (OVCAR-4) was > 10 µM (inactive). For the same molecule, the GI50 (OVCAR-8) was > 10 µM (inactive), the GI50 (SF-268) was > 10 µM (inactive) and the GI50 (SK-MEL-2) was > 10 µM (inactive). The GI50 (TK-10) was > 10 µM (inactive) and the GI50 (U-251) was > 10 µM (inactive).

In the case of `Oc1cccc(C2SCc3nc4ccccc4n32)c1` (stereo not given), the GI50 (786-0) is reported as > 100 µM (inactive), the GI50 (A498) is reported as 13.2 µM (inactive) and the GI50 (CAKI-1) is reported as 58.2 µM (inactive). For the same molecule, the GI50 (EKVX) was 43.5 µM (inactive), the GI50 (HOP-92) was 47.5 µM (inactive) and the GI50 (HT-29) was > 100 µM (inactive). The GI50 (KM12) was 73.3 µM (inactive), the GI50 (MOLT-4) was 31.6 µM (inactive) and the GI50 (NCI-H226) was 21.2 µM (inactive). The GI50 (NCI-H23) was 38.8 µM (inactive), the GI50 (OVCAR-8) was 96.2 µM (inactive) and the GI50 (SF-268) was 73.6 µM (inactive). For the same molecule, the GI50 (SK-MEL-2) was 76 µM (inactive), the GI50 (TK-10) was > 100 µM (inactive) and the GI50 (U-251) was 84.5 µM (inactive).

In the case of `CCOC(=O)[C@]12C3C=CC(C3)C1C(=O)C1OC12` (stereo not given in full), the GI50 (786-0) is reported as > 100 µM (inactive), the GI50 (A498) is reported as > 100 µM (inactive) and the GI50 (CAKI-1) is reported as > 100 µM (inactive). For the same molecule, the GI50 (EKVX) was > 100 µM (inactive), the GI50 (HOP-92) was 0.109 µM (active) and the GI50 (HT-29) was > 100 µM (inactive). For the same molecule, the GI50 (KM12) was > 100 µM (inactive), the GI50 (MOLT-4) was > 100 µM (inactive) and the GI50 (NCI-H226) was > 100 µM (inactive). For the same molecule, the GI50 (NCI-H23) was > 100 µM (inactive), the GI50 (OVCAR-4) was > 100 µM (inactive) and the GI50 (OVCAR-8) was > 100 µM (inactive). For the same molecule, the GI50 (SF-268) was > 100 µM (inactive), the GI50 (SK-MEL-2) was > 100 µM (inactive) and the GI50 (TK-10) was > 100 µM (inactive). The GI50 (U-251) was > 100 µM (inactive).

`CC1=C2C(=CC(C)(CO)C2O)C(=O)C(C)(O)C12CC2` (stereo not given) was tested, and the GI50 (786-0) was 0.00337 µM (active), the GI50 (A498) was 0.00716 µM (active) and the GI50 (CAKI-1) was 0.00367 µM (active). The GI50 (EKVX) was 0.0103 µM (active), the GI50 (HOP-92) was 0.00255 µM (active) and the GI50 (HT-29) was 0.00154 µM (active). For the same molecule, the GI50 (KM12) was 0.00228 µM (active), the GI50 (M14) was 0.00327 µM (active) and the GI50 (MOLT-4) was 0.00156 µM (active). The GI50 (NCI-H226) was 0.00492 µM (active), the GI50 (NCI-H23) was 0.00203 µM (active) and the GI50 (OVCAR-4) was 0.00243 µM (active). The GI50 (OVCAR-8) was 0.00286 µM (active), the GI50 (SF-268) was 0.00114 µM (active) and the GI50 (SK-MEL-2) was 0.00148 µM (active). The GI50 (TK-10) was 0.00719 µM (active) and the GI50 (U-251) was 0.00102 µM (active).

For `CCC(CCCCC1CC[C@H]2CC(=O)C[C@@H]12)OC` (stereo not given in full), the GI50 (786-0) was > 100 µM (inactive), the GI50 (A498) was > 100 µM (inactive) and the GI50 (CAKI-1) was > 100 µM (inactive). For the same molecule, the GI50 (HOP-92) was > 100 µM (inactive), the GI50 (HT-29) was > 100 µM (inactive) and the GI50 (MCF7) was > 100 µM (inactive). The GI50 (MDA-MB-231) was > 100 µM (inactive), the GI50 (MOLT-4) was > 100 µM (inactive) and the GI50 (NCI-H226) was > 100 µM (inactive). For the same molecule, the GI50 (NCI-H23) was > 100 µM (inactive), the GI50 (OVCAR-8) was > 100 µM (inactive) and the GI50 (SF-268) was > 100 µM (inactive). For the same molecule, the GI50 (SK-MEL-2) was > 100 µM (inactive), the GI50 (TK-10) was > 100 µM (inactive) and the GI50 (U-251) was > 100 µM (inactive).

In the case of `Cc1c(C(=O)/C=C/c2ccc3c(c2)OCO3)[n+]([O-])c2ccccc2[n+]1[O-]`, the GI50 (786-0) is reported as 42.1 µM (inactive), the GI50 (A498) is reported as 20.4 µM (inactive) and the GI50 (CAKI-1) is reported as 25.9 µM (inactive). The GI50 (EKVX) was 24.7 µM (inactive), the GI50 (HOP-92) was 21.1 µM (inactive) and the GI50 (HT-29) was 26.4 µM (inactive). The GI50 (KM12) was 31.9 µM (inactive), the GI50 (M14) was 28.1 µM (inactive) and the GI50 (MOLT-4) was 22.9 µM (inactive). The GI50 (NCI-H226) was 16 µM (inactive), the GI50 (NCI-H23) was 19.5 µM (inactive) and the GI50 (OVCAR-4) was 40.6 µM (inactive). For the same molecule, the GI50 (OVCAR-8) was 23.8 µM (inactive), the GI50 (SF-268) was 52.6 µM (inactive) and the GI50 (TK-10) was 36.1 µM (inactive). The GI50 (U-251) was 30.3 µM (inactive).

From ChEMBL document CHEMBL1201862, “PubChem BioAssay data set” (2004)
